Source: paper PMC5474226 (Cancer research, 2017)
Like-named read-outs stand apart in the source and are kept apart here.

Legend:
granzyme B = settings: tetrapeptide with C-terminus aspartate modified to aldehyde; ref [21],[22]; cited from earlier work
[1] = target: granzyme B (activated from pro-granzyme B) (UniProt P04187); assay: enzyme inhibition assay
[2] = test system: advanced non-small cell lung cancer; settings: ref [8], cited from earlier work

Sequence of UniProt P04187 (P04187 21-247): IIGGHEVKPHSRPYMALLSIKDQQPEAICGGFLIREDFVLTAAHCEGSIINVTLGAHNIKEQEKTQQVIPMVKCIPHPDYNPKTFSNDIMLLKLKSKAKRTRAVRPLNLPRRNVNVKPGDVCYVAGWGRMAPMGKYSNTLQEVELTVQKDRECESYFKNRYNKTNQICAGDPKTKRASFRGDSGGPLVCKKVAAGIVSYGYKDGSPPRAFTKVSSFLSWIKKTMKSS

Ile-Glu-Phe-Asp
Ki (granzyme B): 80 nM

NOTA–β-Ala–Gly–Gly–Ile–Glu–Phe–Asp–CHO (NOTA-GZP), gallium-labelled (peptide)
Ki [1]: 47 nM

pembrolizumab
response rate ([2]; patients with >1% positive PD-L1 staining): 18%
response rate ([2]; tumors with greater than 50% positive staining for PD-L1): 30%
